What was measured:
Format in all cases: protein-complex assay
[1] = molecular target: T1, Gamma-secretase (Homo sapiens) (UniProt Q96BI3+Q9NZ42+Q8WW43+P49768+Q92542+P49810); assay: Inhibition of beta amyloid protein 40 production relative to 4-chloro-N-(2,5-difluorophenyl)-N-(1-(2-(3-(pyrrolidin-1-yl)propoxy)phenyl)ethyl)benzenesulfonamide
Gamma-secretase = assay: Inhibition of beta amyloid protein 40 production
[2] = molecular target: T1, Gamma-secretase (Homo sapiens); assay: Inhibition of beta amyloid protein 40 production relative to 4-chloro-N-phenyl-N-(1-(2-(3-(pyrrolidin-1-yl)propoxy)phenyl)ethyl)benzenesulfonamide

SMILES | Ratio IC50 [1] | IC50 (Gamma-secretase) [nM] | Ratio IC50 [2]
CC(c1ccccc1OCCCN1CCCC1)N(c1ccccc1)S(=O)(=O)c1ccc(Cl)cc1 (centres undefined) | 200 | 10 | –
CC(c1ccccc1OCCCN1CCOCC1)N(c1cc(F)ccc1F)S(=O)(=O)c1ccc(Cl)cc1 (centres undefined) | – | 4400 | –
CC(c1ccccc1OCCCN1CCCC1)N(c1ccccc1)S(=O)(=O)c1ccc(Br)cc1 (centres undefined) | – | 1900 | 0.005
CC(c1ccccc1OCCCN1CCCC1)N(c1ccccc1)S(=O)(=O)c1ccc(C(F)(F)F)cc1 (centres undefined) | – | 400 | 0.03
CC(c1ccccc1OCCCN1CCCCC1)N(c1cc(F)ccc1F)S(=O)(=O)c1ccc(Cl)cc1 (centres undefined) | – | 2100 | –
CC(c1ccccc1OCCCN1CCCC1)N(c1ccc(Cl)cc1)S(=O)(=O)c1ccc(Cl)cc1 (centres undefined) | 1.5 | 1300 | –
CC(c1ccccc1OCCCN1CCCC1)N(c1ccccc1Cl)S(=O)(=O)c1ccc(Cl)cc1 (centres undefined) | 4 | 490 | –
CC(c1ccccc1OCCCN1CCCC1)N(c1ccccc1)S(=O)(=O)c1ccc(F)cc1 (centres undefined) | – | 350 | 0.03
CC(c1ccccc1OCCCN1CCCC1)N(c1cccc(C(=O)c2ccccc2)c1)S(=O)(=O)c1ccc(Cl)cc1 (centres undefined) | 0.7 | 3000 | –
CC(c1ccc(C(=O)c2ccccc2)cc1OCCCN1CCCC1)N(c1cc(F)c(OCC(=O)NCCCCCCCCNC(=O)CCCC[C@@H]2SC[C@@H]3NC(=O)N[C@@H]32)cc1F)S(=O)(=O)c1ccc(Cl)cc1 (some centres undefined) | 100 | 20 | –
CC(c1ccccc1OCCCN1CCCC1)N(c1ccccc1)S(=O)(=O)c1ccccc1 (centres undefined) | – | 690 | 0.01

More lines, in order of falling IC50 (Gamma-secretase), values ahead:

Ratio IC50 [1] | IC50 (Gamma-secretase) [nM] | Ratio IC50 [2] | SMILES
0.1 | 17000 | – | CC(c1ccc(C(=O)c2ccccc2)cc1OCCCN1CCCC1)N(c1ccccc1)S(=O)(=O)c1ccc(Cl)cc1 (centres undefined)
0.6 | 3200 | – | CC(c1ccccc1OCCCN1CCCC1)N(c1ccc(C(=O)c2ccccc2)cc1)S(=O)(=O)c1ccc(Cl)cc1 (centres undefined)
– | 2000 | – | CC(c1ccccc1OCCCN1CCCC1)N(c1cc(F)ccc1F)S(=O)(=O)c1ccc(Cl)cc1 (centres undefined)
1.7 | 1200 | – | CC(c1ccccc1OCCCN1CCCC1)N(c1ccccc1C(=O)c1ccccc1)S(=O)(=O)c1ccc(Cl)cc1 (centres undefined)
1.8 | 1100 | – | COc1ccc(N(C(C)c2ccccc2OCCCN2CCCC2)S(=O)(=O)c2ccc(Cl)cc2)cc1 (centres undefined)
– | 1000 | – | CCN(CC)CCCOc1ccccc1C(C)N(c1cc(F)ccc1F)S(=O)(=O)c1ccc(Cl)cc1 (centres undefined)
3.8 | 530 | – | COc1cccc(N(C(C)c2ccccc2OCCCN2CCCC2)S(=O)(=O)c2ccc(Cl)cc2)c1 (centres undefined)
3.8 | 530 | – | CC(c1ccccc1OCCCN1CCCC1)N(c1cccc(Cl)c1)S(=O)(=O)c1ccc(Cl)cc1 (centres undefined)
4.3 | 470 | – | COc1ccccc1N(C(C)c1ccccc1OCCCN1CCCC1)S(=O)(=O)c1ccc(Cl)cc1 (centres undefined)
15 | 130 | – | CC(c1ccc(C(=O)c2ccccc2)cc1OCCCN1CCCC1)N(c1cc(F)ccc1F)S(=O)(=O)c1ccc(Cl)cc1 (centres undefined)
200 | 10 | – | CC(c1ccc(C(=O)c2ccccc2)cc1OCCCN1CCCC1)N(c1cc(F)c(OCC(=O)NCCCCCNC(=O)CCCC[C@@H]2SC[C@@H]3NC(=O)N[C@@H]32)cc1F)S(=O)(=O)c1ccc(Cl)cc1 (some centres undefined)
328 | 6.1 | – | CC(c1ccc(C(=O)c2ccc(COC(=O)NCCCCCCCCNC(=O)CCCC[C@@H]3SC[C@@H]4NC(=O)N[C@@H]43)cc2)cc1OCCCN1CCCC1)N(c1cc(F)ccc1F)S(=O)(=O)c1ccc(Cl)cc1 (some centres undefined)
690 | 2.9 | – | CC(c1ccc(C(=O)c2ccc(COC(=O)NCCCCCNC(=O)CCCC[C@@H]3SC[C@@H]4NC(=O)N[C@@H]43)cc2)cc1OCCCN1CCCC1)N(c1cc(F)ccc1F)S(=O)(=O)c1ccc(Cl)cc1 (some centres undefined)

Source: ChEMBL document CHEMBL1145309, “Synthesis of biotinylated photoaffinity probes based on arylsulfonamide gamma-secretase inhibitors” (Bioorg Med Chem Lett, 2006)
